Data reported in patent US20230322767A1, “ARYL SUBSTITUTED PYRROLO-PYRIDINONES AND THERAPEUTIC USES THEREOF” (Bayer Aktiengesellschaft, priority 2020, published 2023).
Read-outs that look alike come from different tables or passages of the source.

Tests used:
Type in all cases: biochemical
[1] = target: CSNK1A1 (Homo sapiens (Human), UniProt P48729); assay: CSNK1A1 Assay 2 (ADP-Glo, 1 μM ATP); conditions: median, read-out: CSNK1A1 Assay 2 IC50 [mol/l] (median)
Outline: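 Enzyme (~0.0375 ng/μL) preincubated 15 min at 22° C with compound in HEPES pH 7.5 buffer, then reacted with 1 μM ATP and biotin-Ahx-KRRRAL-pS-VASLPGL peptide. ADP product measured by ADP-Glo luminescence after 1 h ATP depletion and 1 h detection at 22° C.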

[2] = target: CSNK1D (Homo sapiens (Human), UniProt P48730); assay: CSNK1D Assay (ADP-Glo, 1 μM ATP); conditions: median, read-out: CSNK1D IC50 [mol/l] (median)
Outline: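 Enzyme preincubated with compound 15 min at 22° C in 50 mM HEPES pH 7.5 buffer with 10 mM MgCl2, 1 mM DTT; kinase reaction run at 1 μM ATP with biotinylated peptide substrate. ADP formed was detected by ADP-Glo luminescence as the measure of activity.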

[3] = target: wild-type Epidermal Growth Factor Receptor (EGFR) (Homo sapiens (Human), UniProt P00533); assay: WT-EGFR Kinase Assay (TR-FRET, 2 mM ATP)
Outline: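 GST-tagged human EGFR (R669–A1210, Sf9-expressed) preincubated 15 min at 22° C with compound in pH 7.0 Hepes/MgCl2 buffer, then reacted at 2 mM ATP with a biotinylated peptide substrate. Phosphorylation detected by TR-FRET (streptavidin-XL665, Tb-cryptate anti-phosphotyrosine) as the 665/620 nm emission ratio.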

[4] = read-out: EGFR Wildtyp 2 mM ATP IC50 [mol/l] (median), median or individual measurements
[5] = EGFR Wildtyp 2 mM ATP IC50 [mol/l] (median), median or individual measurements

CSNK1A1, sequence (P48729 whole entry): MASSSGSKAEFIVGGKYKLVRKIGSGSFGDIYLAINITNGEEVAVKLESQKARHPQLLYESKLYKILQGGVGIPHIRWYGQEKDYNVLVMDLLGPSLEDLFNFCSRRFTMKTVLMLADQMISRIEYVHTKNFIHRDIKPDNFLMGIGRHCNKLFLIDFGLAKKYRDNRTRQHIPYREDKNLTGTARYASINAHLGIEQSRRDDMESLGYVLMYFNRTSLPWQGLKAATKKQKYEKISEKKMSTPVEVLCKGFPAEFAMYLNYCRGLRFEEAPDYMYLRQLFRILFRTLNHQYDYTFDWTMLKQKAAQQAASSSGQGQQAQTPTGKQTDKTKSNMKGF
CSNK1D, sequence (P48730 whole entry): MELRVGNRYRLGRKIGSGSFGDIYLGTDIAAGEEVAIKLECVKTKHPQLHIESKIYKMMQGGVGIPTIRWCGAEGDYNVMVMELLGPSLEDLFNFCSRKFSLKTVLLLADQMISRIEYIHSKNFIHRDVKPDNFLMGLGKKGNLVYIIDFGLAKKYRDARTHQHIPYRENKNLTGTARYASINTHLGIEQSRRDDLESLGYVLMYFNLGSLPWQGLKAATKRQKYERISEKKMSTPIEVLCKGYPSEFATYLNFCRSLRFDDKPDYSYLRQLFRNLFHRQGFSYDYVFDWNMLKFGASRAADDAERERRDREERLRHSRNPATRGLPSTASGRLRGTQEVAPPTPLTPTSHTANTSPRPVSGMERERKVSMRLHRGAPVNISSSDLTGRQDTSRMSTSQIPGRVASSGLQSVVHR
wild-type Epidermal Growth Factor Receptor (EGFR), sequence (P00533 669-1210): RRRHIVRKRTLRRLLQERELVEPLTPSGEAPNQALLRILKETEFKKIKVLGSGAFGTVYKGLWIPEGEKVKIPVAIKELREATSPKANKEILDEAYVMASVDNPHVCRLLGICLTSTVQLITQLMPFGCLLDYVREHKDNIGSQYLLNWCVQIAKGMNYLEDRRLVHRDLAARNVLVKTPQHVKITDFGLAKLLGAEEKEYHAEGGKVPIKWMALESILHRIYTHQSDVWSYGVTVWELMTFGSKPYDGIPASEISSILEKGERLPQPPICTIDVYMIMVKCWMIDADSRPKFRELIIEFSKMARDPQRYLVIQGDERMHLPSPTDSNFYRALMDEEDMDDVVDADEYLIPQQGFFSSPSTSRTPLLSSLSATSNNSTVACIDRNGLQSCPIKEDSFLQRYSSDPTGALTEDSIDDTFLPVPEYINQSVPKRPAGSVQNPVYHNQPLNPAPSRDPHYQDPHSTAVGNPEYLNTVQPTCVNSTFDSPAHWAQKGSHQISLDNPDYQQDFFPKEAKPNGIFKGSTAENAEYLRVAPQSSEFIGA

Structure (SMILES)	IC50 [1]	IC50 [2]	IC50 [3, 4]	IC50 [3, 5]
CC1(C)Cc2[nH]c(-c3ccnc(NC(=O)Cc4ccc(F)cc4)c3)c(-c3cccc(F)c3)c2C(=O)N1 [Example 85, 2-(4-fluorophenyl)-N-{4-[3-(3-fluorophenyl)-6,6-dimethyl-4-oxo-4,5,6,7-tetrahydro-1H-pyrrolo[3,2-c]pyridin-2-yl]pyridin-2-yl}acetamide]	1.9 nM	3.9 nM	> 5.71 µM	
O=C1NCCc2[nH]c(-c3ccnc(NC(=O)C(CC(F)F)c4ccc(F)cc4)c3)c(-c3ccccc3)c21 (racemic) [Example 75, 4,4-difluoro-2-(4-fluorophenyl)-N-[4-(4-oxo-3-phenyl-4,5,6,7-tetrahydro-1H-pyrrolo[3,2-c]pyridin-2-yl)pyridin-2-yl]butanamide]	2.7 nM	4.5 nM		> 20 µM
Cc1ccc(-c2c(-c3ccnc(NC(=O)C(C)c4ccc(F)cc4)c3)[nH]c3c2C(=O)NC(C)(C)C3)cc1 (racemic) [Example 91, N-{4-[6,6-dimethyl-3-(4-methylphenyl)-4-oxo-4,5,6,7-tetrahydro-1H-pyrrolo[3,2-c]pyridin-2-yl]pyridin-2-yl}-2-(4-fluorophenyl)propanamide]	7.7 nM	7.6 nM		> 20 µM
CN1CCc2[nH]c(-c3ccnc(NC(=O)C(CC(F)F)c4ccc(F)cc4)c3)c(-c3cc(F)ccc3C#N)c2C1=O (racemic) [Example 128, N-{4-[3-(2-cyano-5-fluorophenyl)-5-methyl-4-oxo-4,5,6,7-tetrahydro-1H-pyrrolo[3,2-c]pyridin-2-yl]pyridin-2-yl}-4,4-difluoro-2-(4-fluorophenyl)butanamide]	14 nM	12 nM		> 20 µM
CC1(C)Cc2[nH]c(-c3ccnc(NC(=O)Cc4ccc(F)cc4)c3)c(-c3ccccc3)c2C(=O)N1 [Example 82, N-[4-(6,6-dimethyl-4-oxo-3-phenyl-4,5,6,7-tetrahydro-1H-pyrrolo[3,2-c]pyridin-2-yl)pyridin-2-yl]-2-(4-fluorophenyl)acetamide]	1.3 nM	2.4 nM	> 20 µM	
O=C(Nc1cc(-c2[nH]c3ccn(C4CC4)c(=O)c3c2-c2ccccc2)ccn1)C(CC(F)F)c1ccc(F)cc1 (single isomer, unassigned) [Example 157, (2R or S)—N-[4-(5-cyclopropyl-4-oxo-3-phenyl-4,5-dihydro-1H-pyrrolo[3,2-c]pyridin-2-yl)pyridin-2-yl]-4,4-difluoro-2-(4-fluorophenyl)butanamide]	2 nM	2.3 nM		> 20 µM
O=C(Cc1ccc(F)cc1)Nc1cc(-c2[nH]c3cc[nH]c(=O)c3c2-c2ccccc2)ccn1 [Example 73, 2-(4-fluorophenyl)-N-[4-(4-oxo-3-phenyl-4,5-dihydro-1H-pyrrolo[3,2-c]pyridin-2-yl)pyridin-2-yl]acetamide]	1.9 nM	5.4 nM	> 20 µM	
Cc1cccc(-c2c(-c3ccnc(NC(=O)Cc4ccc(F)cc4)c3)[nH]c3c2C(=O)NC(C)(C)C3)c1 [Example 86, N-{4-[6,6-dimethyl-3-(3-methylphenyl)-4-oxo-4,5,6,7-tetrahydro-1H-pyrrolo[3,2-c]pyridin-2-yl]pyridin-2-yl}-2-(4-fluorophenyl)acetamide]	4 nM	5.2 nM	> 20 µM	
CC(C(=O)Nc1cc(-c2[nH]c3ccn(C)c(=O)c3c2-c2ccc(F)c(F)c2)ccn1)c1ccc(F)cc1 (racemic) [Example 114, N-{4-[3-(3,4-difluorophenyl)-5-methyl-4-oxo-4,5-dihydro-1H-pyrrolo[3,2-c]pyridin-2-yl]pyridin-2-yl}-2-(4-fluorophenyl)propanamide]	4.8 nM	6.8 nM		> 20 µM
Cn1cc(CC(F)(F)F)c2[nH]c(-c3ccnc(NC(=O)C(CC(F)F)c4ccc(F)cc4)c3)c(-c3ccccn3)c2c1=O (racemic) [Example 162, (2RS)-4,4-difluoro-2-(4-fluorophenyl)-N-{4-[5-methyl-4-oxo-3-(pyridin-2-yl)-7-(2,2,2-trifluoroethyl)-4,5-dihydro-1H-pyrrolo[3,2-c]pyridin-2-yl]pyridin-2-yl}butanamide]	14 nM	12 nM		> 20 µM
CC(C(=O)Nc1cc(-c2[nH]c3ccn(C)c(=O)c3c2-c2cccc(Cl)c2)ccn1)c1ccc(F)cc1 (racemic) [Example 106, N-{4-[3-(3-chlorophenyl)-5-methyl-4-oxo-4,5-dihydro-1H-pyrrolo[3,2-c]pyridin-2-yl]pyridin-2-yl}-2-(4-fluorophenyl)propanamide]	9.2 nM	11 nM		> 20 µM
CC(C(=O)Nc1cc(-c2[nH]c3ccn(C)c(=O)c3c2-c2cc(F)cc(F)c2)ccn1)c1ccc(F)cc1 (racemic) [Example 121, N-{4-[3-(3,5-difluorophenyl)-5-methyl-4-oxo-4,5-dihydro-1H-pyrrolo[3,2-c]pyridin-2-yl]pyridin-2-yl}-2-(4-fluorophenyl)propanamide]	7 nM	13 nM	> 5.71 µM	> 5.71 µM
CN1CC(CC2CC2)c2[nH]c(-c3ccnc(NC(=O)C(CC(F)F)c4ccc(F)cc4)c3)c(-c3ccc(F)cc3)c2C1=O (centres unmarked) [Example 64, N-{4-[7-(cyclopropylmethyl)-3-(4-fluorophenyl)-5-methyl-4-oxo-4,5,6,7-tetrahydro-1H-pyrrolo[3,2-c]pyridin-2-yl]pyridin-2-yl}-4,4-difluoro-2-(4-fluorophenyl)butanamide]	8.5 nM	4.8 nM	> 20 µM	
CC(C(=O)Nc1cc(-c2[nH]c3c(c2-c2cccnc2)C(=O)NC(C)(C)C3)ccn1)c1ccc(F)cc1 (single isomer, unassigned) [Example 99, N-{4-[6,6-dimethyl-4-oxo-3-(pyridin-3-yl)-4,5,6,7-tetrahydro-1H-pyrrolo[3,2-c]pyridin-2-yl]pyridin-2-yl}-2-(4-fluorophenyl)propanamide]	4.3 nM	5.5 nM	> 20 µM	
CC(C(=O)Nc1cc(-c2[nH]c3ccn(C)c(=O)c3c2-c2ccnc(N)c2)ccn1)c1ccc(F)cc1 (racemic) [Example 126, N-{4-[3-(2-aminopyridin-4-yl)-5-methyl-4-oxo-4,5-dihydro-1H-pyrrolo[3,2-c]pyridin-2-yl]pyridin-2-yl}-2-(4-fluorophenyl)propanamide]	55 nM	63 nM		> 20 µM
CC1(C)Cc2[nH]c(-c3ccnc(NC(=O)Cc4ccc(F)cc4)c3)c(-c3ccc(F)cc3)c2C(=O)N1 [Example 83, 2-(4-fluorophenyl)-N-{4-[3-(4-fluorophenyl)-6,6-dimethyl-4-oxo-4,5,6,7-tetrahydro-1H-pyrrolo[3,2-c]pyridin-2-yl]pyridin-2-yl}acetamide]	1.9 nM	3.5 nM	> 20 µM	
Cc1ccc(-c2c(-c3ccnc(NC(=O)C(C)c4ccc(F)cc4)c3)[nH]c3ccn(C)c(=O)c23)s1 (racemic) [Example 125, 2-(4-fluorophenyl)-N-{4-[5-methyl-3-(5-methyl-2-thienyl)-4-oxo-4,5-dihydro-1H-pyrrolo[3,2-c]pyridin-2-yl]pyridin-2-yl}propanamide]	3.3 nM	5.9 nM	> 1.63 µM	> 1.63 µM
CC(C(=O)Nc1cc(-c2[nH]c3c(c2-c2ccccc2)C(=O)N(C)CC3)ccn1)c1ccncc1 (racemic) [Example 153, (Rac)-N-[4-(5-methyl-4-oxo-3-phenyl-4,5,6,7-tetrahydro-1H-pyrrolo[3,2-c]pyridin-2-yl)pyridin-2-yl]-2-(pyridin-4-yl)propanamide]	2 nM	2.4 nM		> 20 µM
O=C(Nc1cc(-c2[nH]c3c(c2-c2ccccc2)C(=O)N(C2CC2)CC3)ccn1)C(CC(F)F)c1ccc(F)cc1 (racemic) [Example 156, (2RS)—N-(4-(5-cyclopropyl-4-oxo-3-phenyl-4,5,6,7-tetrahydro-1H-pyrrolo[3,2-c]pyridin-2-yl)pyridin-2-yl)-4,4-difluoro-2-(4-fluorophenyl)butanamide]	2.3 nM	3.1 nM		> 20 µM
CC(C(=O)Nc1cc(-c2[nH]c3c(c2-c2cccnc2)C(=O)NC(C)(C)C3)ccn1)c1ccc(F)cc1 (racemic) [Example 97, N-{4-[6,6-dimethyl-4-oxo-3-(pyridin-3-yl)-4,5,6,7-tetrahydro-1H-pyrrolo[3,2-c]pyridin-2-yl]pyridin-2-yl}-2-(4-fluorophenyl)propanamide]	8.1 nM	14 nM		> 20 µM
CC(C(=O)Nc1cc(-c2[nH]c3c(c2-c2ccc(F)cc2F)C(=O)N(C)CC3)ccn1)c1ccc(F)cc1 (single isomer, unassigned) [Example 70, N-{4-[3-(2,4-difluorophenyl)-5-methyl-4-oxo-4,5,6,7-tetrahydro-1H-pyrrolo[3,2-c]pyridin-2-yl]pyridin-2-yl}-2-(4-fluorophenyl)propanamide]	16 nM	7.6 nM		> 20 µM
